Assays:
[1] = tested on: total ATXN3 protein in SK-N-MC cells; assay: ATXN3 total protein assay (MSD); type: cell-based; conditions: Human neuroblastoma SK-N-MC cells, 48 hours incubation, read-out: ATXN3 Protein Potency IC50
Description: Human neuroblastoma SK-N-MC cells were seeded at 10,000 cells/well in 384 well plates one day prior to compound treatment. The concentrations of compounds were tested at appropriate doses ranging from 30 μM to 0.6 nM. After incubation for 48 hours, the cells were lysed with 25 μL of lysis buffer containing protease inhibitors, and total ATXN3 protein levels were assessed by Mesoscale Discovery (MSD) assay developed with one pair of anti-ATXN3 antibodies. The capture and detect antibodies were raised in mouse and rabbit respectively. Anti-rabbit MSD-ST antibody was used for secondary antibody.
ATXN3 recombinant protein was used for standards. The readouts were captured with 35 μL of MSD read buffer and multi-array 384-well high binding plates.

[2] = tested on: ATXN3 exon 4 skipped transcripts in SK-N-MC cells; assay: ATXN3 quantitative splicing assay (qPCR of exon 4 skipped transcripts); type: cell-based; conditions: Human neuroblastoma SK-N-MC cells, 24 h treatment, read-out: ATXN 3 E4 Skipping EC50
Description: Human neuroblastoma SK-N-MC cells were plated in 384-well plates at 20,000 cells/well. Twenty-four hours after plating, cells were treated with compounds for 24 hat appropriate concentrations ranging from 30 µM to 0.6 nM (0.3% DMSO). Treated cells were lysed in 15 μL of lysis buffer, and cDNA was synthesized using the Fast Advanced Cells-to-Ct kit Two μL of each cDNA was used in PCR reactions to confirm the exon 4 skipped transcripts of ATXN3. A second set of primers/probe E4E5 was used to detect the transcripts containing exon 4. The third set of primers/probe E8E9 was used to detect total gene level of ATXN3. The qPCR reactions were prepared in 384-well plates in 10 μL volume, using TaqMan™ Fast Advanced Master Mix with primers and probes shown in the table below. Reactions were run in a Quant Studio 6 qPCR instrument with default settings.
The primers and probes are listed below in Table 3.

Row | Structure (SMILES) | IC50 [1] | EC50 [2]
1 | Cc1csc2c(NCc3ccccc3)nnnc12 [Compound 1, N-benzyl-7-methylthieno[3,2-d][1,2,3]triazin-4-amine] | ≥ 10 µM | ≥ 10 µM
2 | Cc1c(C[C@H](C)N)sc2c(NCc3ccccc3)nnnc12 [Compound 2, (S)-6-(2-aminopropyl)-N-benzyl-7-methylthieno[3,2-d][1,2,3]triazin-4-amine] | ≥ 10 µM | ≥ 10 µM
3 | Cc1csc2c(NCc3ccncc3)nnnc12 [Compound 3, 7-methyl-N-(pyridin-4-ylmethyl)thieno[3,2-d][1,2,3]triazin-4-amine] | ≥ 10 µM | ≥ 10 µM
4 | Cc1c(C[C@H](C)N)sc2c(NCc3ccncc3)nnnc12 [Compound 4, (S)-6-(2-aminopropyl)-7-methyl-N-(pyridin-4-ylmethyl)thieno[3,2-d][1,2,3]triazin-4-amine] | 0.501 to 5 µM | 0.501 to 5 µM

From US20250127789A1, “COMPOSITIONS USEFUL FOR MODULATING SPLICING” (SKYHAWK THERAPEUTICS, INC., priority 2021, published 2025)
